For orientation: IC50 means the midpoint of a concentration-inhibition curve. A higher IC50 goes with weaker potency.

25 compounds from US12441690B2, “Benzamide derivative compound, method for preparing same, and pharmaceutical composition for treating or preventing inflammatory disease containing same as active ingredient” (SEOUL NATIONAL UNIVERSITY R&DB FOUNDATION, priority 2017, dated 2025) can be followed below.

PDE4B enzyme, sequence (Q07343 whole entry): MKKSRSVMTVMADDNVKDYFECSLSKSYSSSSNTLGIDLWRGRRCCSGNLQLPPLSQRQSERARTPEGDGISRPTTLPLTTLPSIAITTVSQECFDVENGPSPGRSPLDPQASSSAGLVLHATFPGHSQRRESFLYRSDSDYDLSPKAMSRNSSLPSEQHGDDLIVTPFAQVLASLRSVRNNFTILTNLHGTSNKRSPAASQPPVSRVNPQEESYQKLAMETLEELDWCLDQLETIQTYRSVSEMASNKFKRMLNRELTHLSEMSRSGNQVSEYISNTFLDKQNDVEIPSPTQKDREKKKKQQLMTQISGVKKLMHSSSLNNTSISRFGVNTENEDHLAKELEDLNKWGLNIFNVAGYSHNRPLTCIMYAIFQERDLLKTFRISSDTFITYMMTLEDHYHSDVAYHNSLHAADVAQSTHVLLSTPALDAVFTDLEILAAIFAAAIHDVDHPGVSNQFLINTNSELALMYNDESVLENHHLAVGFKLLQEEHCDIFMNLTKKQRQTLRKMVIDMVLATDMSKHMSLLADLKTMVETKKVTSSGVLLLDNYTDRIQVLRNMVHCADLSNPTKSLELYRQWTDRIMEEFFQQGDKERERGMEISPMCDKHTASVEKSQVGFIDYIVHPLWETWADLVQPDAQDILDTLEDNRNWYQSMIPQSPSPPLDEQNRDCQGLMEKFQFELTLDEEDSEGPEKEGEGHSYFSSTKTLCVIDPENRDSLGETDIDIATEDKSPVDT

This assay addresses PDE4B enzyme (Homo sapiens (Human), UniProt Q07343). Briefly: PDE4B inhibitory activity, LANCE Ultra cAMP assay. The class given is biochemical. The conditions noted are these: 50% inhibition from cAMP to 5′AMP. On the procedure: In order to evaluate the PDE4B inhibitory activity of the compounds according to the present invention, the following experiment was performed using LANCE Ultra cAMP assay kit (Perkin Elmer, U.S.A).
Particularly, 5 μl of the 3 nM cAMP dissolved reaction buffer was added to each reaction well (LANCE Ultra cAMP assay kit). Then, each example compound dilution solution (2.5 μl) and PDE4B enzyme (0.1 ng/well, BPS Biosciences, San Diego, U.S.A) were added to the well, followed by incubation for 1 hour at 37° C. Next, 5 μl of ULight-anti-cAMP detection reactant supplemented with 5 μl of Eu-cAMP tracer and 1 mM IBMX (LANCE Ultra cAMP assay kit) was added thereto, followed by incubation for 1 hour at 37° C.
As to `O=C(NCCc1c[nH]c2ccccc12)c1cnc(C(F)(F)F)nc1N1CCOCC1` [Example 24, N-(2-(1H-indole-3-yl)ethyl)-4-morpholino-2-(trifluoromethyl)pyrimidine-5-carboxamide], the IC50 is 469 nM.

Take `COc1ccc(-c2nc(SC)ncc2C(=O)Nc2cc(C(C)C)c(N)c(C(C)C)c2)cc1OC` [Example 20, N-(4-amino-3,5-diisopropylphenyl)-4-(3,4-dimethoxyphenyl)-2-(methylthio)pyrimidine-5-carboxamide]: the IC50 was found to be 745 nM. On to `CSc1ncc(C(=O)Nc2ccc(F)cc2)c(N2CCOCC2)n1` [Example 6, N-(4-fluorophenyl)-2-(methylthio)-4-morpholinopyrimidine-5-carboxamide], for which the IC50 was determined as 367 nM.

As to `COc1ccc(NC(=O)c2cnc(C(F)(F)F)nc2N2CCOCC2)cc1OC` [Example 11, N-(3,4-dimethoxyphenyl)-4-morpholino-2-(trifluoromethyl)pyrimidine-5-carboxamide], the IC50 was found to be 67 nM. To `COc1ccc(-c2nc(S(C)(=O)=O)ncc2C(=O)NC2CC2)cc1OC` [Example 19, N-cyclopropyl-4-(3,4-dimethoxyphenyl)-2-(methylsulfonyl)pyrimidine-5-carboxamide] belongs 189 nM; to `COc1ccc(NC(=O)c2cnc(C(F)(F)F)nc2-c2ccc(OC)c(OC)c2)cc1OC` [Example 30, N,4-bis(3,4-dimethoxyphenyl)-2-(trifluoromethyl)pyrimidine-5-carboxamide], 61 nM. With `COc1ccc(CCNC(=O)c2cnc(SC)nc2N2CCOCC2)cc1OC` [Example 7, N-(3,4-dimethoxyphenetyl)-2-(methylthio)-4-morpholinopyrimidine-5-carboxamide], the IC50 was less than 10 nM. To `COc1ccc(-c2nc(SC)ncc2C(=O)Nc2ccncc2)cc1OC` [Example 3, 4-(3,4-dimethoxyphenyl)-2-(methylthio)-N-(pyridine-4-yl)pyrimidine-5-carboxamide] belongs 95 nM; to `COc1ccc(-c2nc(S(C)(=O)=O)ncc2C(=O)NC2CCOCC2)cc1OC` [Example 14, 4-(3,4-dimethoxyphenyl)-2-(methylsulfonyl)-N-(tetrahydro-2H-pyran-4-yl)pyrimidine-5-carboxamide], 506 nM. For `COc1ccc(-c2nc(C(F)(F)F)ncc2C(=O)NC2CC2)cc1OC` [Example 15, N-cyclopropyl-4-(3,4-dimethoxyphenyl)-2-(trifluoromethyl)pyrimidine-5-carboxamide], the IC50 is 252 nM. Next, `COc1ccc(-c2nc(SC)ncc2C(=O)NCCN2CCOCC2)cc1OC` [Example 27, 4-(3,4-dimethoxyphenyl)-2-(methylthio)-N-(2-morpholinoethyl)pyrimidine-5-carboxamide]: 860 nM; `COc1ccc(-c2nc(C(F)(F)F)ncc2C(=O)NC2CCOCC2)cc1OC` [Example 12, 4-(3,4-dimethoxyphenyl)-N-(tetrahydro-2H-pyran-4-yl)-2-(trifluoromethyl)pyrimidine-5-carboxamide]: 266 nM; `COc1ccc(CNC(=O)c2cnc(C(F)(F)F)nc2N2CCOCC2)c(OC)c1` [Example 8, N-(2,4-dimethoxybenzyl)-4-morpholino-2-(trifluoromethyl)pyrimidine-5-carboxamide]: 74 nM. `COc1ccc(-c2nc(C(F)(F)F)ncc2C(=O)NCCN2CCOCC2)cc1OC` [Example 26, 4-(3,4-dimethoxyphenyl)-N-(2-morpholinoethyl)-2-(trifluoromethyl)pyrimidine-5-carboxamide]: half-maximal inhibition (IC50) required 195 nM. As to `COc1ccc(NC(=O)c2cnc(SC)nc2-c2ccc(OC)c(OC)c2)cc1OC` [Example 29, N,4-bis(3,4-dimethoxyphenyl)-2-(methylthio)pyrimidine-5-carboxamide], the IC50 was determined as 634 nM.

Consider `COc1ccc(-c2nc(SC)ncc2C(=O)NC2CC2)cc1OC` [Example 18, N-cyclopropyl-4-(3,4-dimethoxyphenyl)-2-(methylthio)pyrimidine-5-carboxamide], for which half-maximal inhibition (IC50) was put at 477 nM. This IC50 and that of the compound before are within 1.5-fold of each other. Compound `COc1ccc(NC(=O)c2cnc(SC)nc2N2CCN(CCO)CC2)cc1OC` [Example 22, N-(3,4-dimethoxyphenyl)-4-(4-(2-hydroxyethyl)piperazine-1-yl)-2-(methylthio)pyrimidine-5-carboxamide] registered an IC50 of 881 nM. Compound `COc1ccc(-c2nc(C(F)(F)F)ncc2C(=O)Nc2c(Cl)cncc2Cl)cc1OC` [Example 16, N-(3,5-dichloropyridine-4-yl)-4-(3,4-dimethoxyphenyl)-2-(trifluoromethyl)pyrimidine-5-carboxamide] displayed an IC50 of 44 nM.

`CSc1ncc(C(=O)Nc2c(Cl)cncc2Cl)c(N2CCOCC2)n1` [Example 10, N-(3,5-dichloropyridine-4-yl)-2-(methylthio)-4-morpholinopyrimidine-5-carboxamide]: the IC50 stood at 73 nM. This IC50 lies about 1.7-fold higher than the previous one. `COc1ccc(CNC(=O)c2cnc(SC)nc2N2CCOCC2)c(OC)c1` [Example 9, N-(2,4-dimethoxybenzyl)-2-(methylthio)-4-morpholinopyrimidine-5-carboxamide] gave an IC50 of 377 nM. This IC50 is about 5.2-fold higher than that of the compound before.

As to `COc1ccc(-c2nc(SC)ncc2C(=O)Nc2c(Cl)cncc2Cl)cc1OC` [Example 2, N-(3,5-dichloropyridine-4-yl)-4-(3,4-dimethoxyphenyl)-2-(methylthio)pyrimidine-5-carboxamide], the IC50 amounted to 178 nM.

Take `COc1ccc(-c2nc(SC)ncc2C(=O)NC2CCOCC2)cc1OC` [Example 5, 4-(3,4-dimethoxyphenyl)-2-(methylthio)-N-(tetrahydro-2H-pyran-4-yl)pyrimidine-5-carboxamide]: half-maximal inhibition (IC50) was put at 239 nM. This IC50 and that of the compound before are within 1.5-fold of each other. Next, `CCN(CC)C(=O)c1cnc(C(F)(F)F)nc1-c1ccc(OC)c(OC)c1` [Example 13, 4-(3,4-dimethoxyphenyl)-N,N-diethyl-2-(trifluoromethyl)pyrimidine-5-carboxamide]: 833 nM; `COc1ccc(-c2nc(C(F)(F)F)ncc2C(=O)Nc2cc(C(C)C)c(N)c(C(C)C)c2)cc1OC` [Example 21, N-(4-amino-3,5-diisopropylphenyl)-4-(3,4-dimethoxyphenyl)-2-(trifluoromethyl)pyrimidine-5-carboxamide]: 222 nM. Compound `CSc1ncc(C(=O)NCCc2c[nH]c3ccccc23)c(N2CCOCC2)n1` [Example 4, N-(2-(1H-indole-3-yl)ethyl)-2-(methylthio)-4-morpholinopyrimidine-5-carboxamide] displayed an IC50 of 166 nM.
